These results are taken from patent publication US11819532B2, “Peptide macrocycles against Acinetobacter baumannii” (Hoffmann-La Roche Inc., priority 2018, dated 2023).

pIC50: −log10 of the molar value. Like-named read-outs stand apart in the source and are kept apart here.

The conditions of data set [1]: positive control and comparator in all assay runs; cited from earlier work.
The subject of data set [2] is A. baumannii ATCC 17978. Briefly: 50% growth inhibitory concentration (IC50) determination, antimicrobial susceptibility testing. The settings on record: Acinetobacter baumannii. The class given is cell-based. The protocol: The in vitro antimicrobial activity of the compounds was alternatively determined according to the following procedure:
The assay used a 10-points Iso-Sensitest broth medium to measure quantitatively the in vitro activity of the compounds against A. baumannii ATCC 17978.
Stock compounds in DMSO were serially twofold diluted (e.g. range from 50 to 0.097 μM or from 10 to 0.020 μM final concentration) in 384 wells microtiter plates and inoculated with 49 μl the bacterial suspension in Iso-Sensitest medium to have a final cell concentration of ˜5×10^(5)CFU/ml in a final volume/well of 50 μl/well. Microtiter plates were incubated at 35±2° C.
Bacterial cell growth was determined with the measurement of optical density at X=600 nm each 20 minutes over a time course of 16h.
Growth inhibition was calculated during the logarithmic growth of the bacterial cells with determination of the concentration inhibiting 50% (IC50) and 90% (IC90) of the growth.
Table 1 provides the 50% growth inhibitory concentrations (IC50) in micromoles per liter of the compounds of present invention obtained against the A. baumannii strain ATCC17978.

For data set [3], the system named is primary hepatocytes. The data set can be described thus: Hepatocyte uptake assay scaled to in vivo clearance (cynomolgus monkey). The format is in vitro ADME. The settings on record: scaled from monkey hepatocyte uptake, well-stirred liver model. An excerpt:
(§1) The compounds of the present invention are cleared through hepatic uptake, which can be determined experimentally in vitro using methods described in the art (e.g., K. Menochet, K. E. Kenworthy, J. B. Houston, A. Galetin, Journal of Pharmacology and Experimental Therapeutics 2012, 34, 2). In cases where the scaled in vitro hepatocyte uptake clearance data correspond to the clearance observed in animals, a meaningful prediction of the human clearance can be made on the basis of in vitro human hepatocyte uptake data.
(§2) The hepatocyte uptake assay was performed manually in 24-well plates in analogy to a protocol described in the literature (K. Menochet, K. E. Kenworthy, J. B. Houston, A. Galetin, Journal of Pharmacology and Experimental Therapeutics 2012, 34, 2). […] Next, the cell monolayer was lysed using acetonitrile/water 3:1, and the intracellular concentration was measured using LC-MS/MS.
(§3) Total (CLuptake) and passive (CLpassive) uptake clearance values were measured from initial uptake rates in the absence and presence of inhibitors. Uptake rates were calculated over 10 minutes at 37° C. from the slope of the linear regression of the cell concentrations versus time plot. Total and passive uptake clearance values were calculated by dividing the slope by the initial substrate concentration and were normalized for protein content. […]

Data set [4] concerns primary hepatocytes. Briefly: Hepatocyte uptake assay scaled to in vivo clearance (human). The format is in vitro ADME. The following applies: scaled from human hepatocyte uptake, well-stirred liver model.
From the text: as §1, §2, §3

Data set [5] in a line: Plasma precipitation screening assay. On the set-up: species or system rat. The protocol:
An aliquot (10 μL) of compound solubilized in physiological buffer or the formulation used for its parenteral administration in vivo, and of various dilutions thereof in phosphate-buffered saline (PBS), is mixed 1:1 with rat plasma. After 10 minutes incubation at room temperature the UV-absorption of the mixtures is measured and compared to absorption of blank plasma or plasma with vehicle solution. A significant (often concentration dependent) increase of absorption is indicative of precipitation.
Whole blood is obtained from WISTAR rats (Hanbrl:Wist SPF) under terminal anaesthesia after intraperitoneal injection of a pentobarbital solution (from animals euthanized for collection of tissue for other experimental purposes). Blood is collected in 1.2 mL of Heparin S-Monovette tubes (Sarstedt) for the preparation of heparin plasma.
The tubes are then centrifuged for 5 min at 5200 g at room temperature to isolate the plasma supernatant. The plasma is used in the assay within 48 h of collection (storage at 4° C.).
Test compounds are received as powder or formulated. When obtained as powder, they are solubilized in 0.9% aq. sodium chloride solution in order to get the highest indicated concentration to be tested. The solubility is visually checked and the solutions are filtered using 0.45 PVDF hydrophilic filters (Durapore®, Darmstadt, Germany), to remove possible solid impurities. pH of this initial solution might be measured in the filtered stock solutions, before proceeding to prepare a compound dilution series in PBS (1:1-dilution steps).
The assay is conducted in 384-well plates. 10 μL of rat plasma is added to 10 μL of the various compound solutions. The assay is performed in duplicate. 10 μL of vehicle (0.9% aq. sodium chloride solution, PBS) added to the plasma is used as a negative control. The absorption is measured at 362 nm.
Raw data obtained are absorbance data. The difference between absorbance of the sample and mean absorbance of vehicle is calculated. The minimal effect concentration (MEC) is defined as the lowest concentration giving an absorbance difference, OD362≥0.05.

Data set [6] can be described thus: Single dose pharmacokinetic study in male rats. The following applies: rat, plasma, intravenous bolus dose of 6 mg/kg, read-out: rat clearance, observed in vivo. The protocol: Three male rats were administered with compound formulation (3 mg/mL in 0.9% saline) as an intravenous bolus dose of 6 mg/kg.
(§4) Blood was sampled at 0.08, 0.25, 0.5, 1, 2, 4, 7 and 24 hours after administration and the blood collecting tubes were centrifuged for 5 min at 5200 g at room temperature to isolate the plasma supernatant.
Concentrations of compound in plasma were analyzed using a LC-MS method with a calibration range of 1-2500 ng/mL. The clearance values are calculated using methods described in the art and are summarised in Example 23.

In data set [7] the test system is primary hepatocytes. The data set can be described thus: Hepatocyte uptake assay scaled to in vivo clearance (rat). The format is in vitro ADME. The following applies: scaled from rat hepatocyte uptake, well-stirred liver model.
From the text: as §1, §2, §3

A short description of data set [8]: Single dose pharmacokinetic study in male cynomolgus monkeys. The following applies: cynomolgus monkey, plasma, intravenous bolus dose of 1 mg/kg, read-out: cynomolgus monkey clearance, observed in vivo. The protocol: Three male monkeys were administered with compound formulation (2 mg/mL in 0.9% saline) as an intravenous bolus dose of 1 mg/kg.
as §4
Concentrations of compound in plasma were analyzed using a LC-MS method with a calibration range of 0.5-2500 ng/mL and are summarised in Example 23.

Where [9] appears, read: 50% growth inhibition, A. baumannii strain ATCC17978, Iso-Sensitest medium, read-out: IC50 ATCC17978.
The mark [10] stands for this setting: minimal effect concentration, lowest concentration giving absorbance difference OD362≥0.05, rat plasma 1:1, 10 minutes room temperature.
Setting [11] is: Wistar (Hanbrl:Wist SPF), rat, 10 min.
Setting [12] is: ATCC17978, read-out: IC50 ATCC17978.

Take `CN1C(=O)[C@H](CCCCN)NC(=O)[C@H](CCCN)NCc2cccnc2Sc2c(Cl)ccc(Cl)c2CNC(=O)[C@@H]1Cc1c[nH]c2ccccc12` [CAS-RN 2097284-11-0, (11S,14S,17S)-14-(4-Aminobutyl)-11-(3-aminopropyl)-22,25-dichloro-17-(1H-indol-3-ylmethyl)-16-methyl-2-thia-4,10,13,16,19-pentazatricyclo[19.4.0.03,8]pentacosa-1(25),3(8),4,6,21,23-hexaene-12,15,18-trione]: the precipitation in plasma result in data set [1] is listed as “known to induce precipitation in plasma”.
By pIC50 is commonly meant the IC50 on a negative log10 scale, so that one unit is a factor of ten. As a reminder, the clearance is the rate of elimination divided by the concentration. Consider `CN1C(=O)[C@H](CCCCN)NC(=O)[C@H](CCCN)NCc2cccnc2Sc2cccc(-c3ccc(C(=O)O)cc3)c2CNC(=O)[C@@H]1Cc1c[nH]c2ccccc12` [Example 1.00, 4-[(11S,14S,17S)-14-(4-Aminobutyl)-1-(3-aminopropyl)-17-(1H-indol-3-ylmethyl)-16-methyl-12,15,18-trioxo-2-thia-4,10,13,16,19-pentazatricyclo[19.4.0.03,8]pentacosa-1(25), 3(8),4,6,21,23-hexaen-22-yl]benzoic Acid], for which, in data set [2] (setting [9]), the pIC50 is 7.01. In data set [3], the “cynomolgus monkey clearance, in vitro scaled” value worked out at 3.8 mL/min/kg. The “human clearance, in vitro scaled (predicted)” value in data set [4] was 0.46 mL/min/kg. For the same compound, in data set [5] (setting [10]), the “Plasma precipitation MEC” value stood at 1110 µmol/L. Further, the values for the clearance in data set [6] and in data set [8] were 14.3 mL/min/kg and 4.8 mL/min/kg, respectively. Also, in data set [7], the “rat clearance, in vitro scaled” value stood at 14.5 mL/min/kg.
For `CN1C(=O)[C@H](CCCCN)NC(=O)[C@H](CCCN)NCc2cccnc2Sc2cncc(-c3ccc(C(=O)O)cc3)c2CNC(=O)[C@@H]1Cc1c[nH]c2ccccc12` [Example 18.00, 4-[(11S,14S,17S)-14-(4-Aminobutyl)-1-(3-aminopropyl)-17-(1H-indol-3-ylmethyl)-16-methyl-12,15,18-trioxo-2-thia-4,10,13,16,19,24-hexazatricyclo[19.4.0.03,8]pentacosa-1(25), 3(8), 4,6,21,23-hexaen-22-yl]benzoic Acid], the negative logarithm of the IC50 (pIC50) in data set [2] (setting [9]) is 7.12. Besides, the “Plasma precipitation MEC” value in data set [5] (setting [11]) was over 1760 µmol/L.
Turning to `CN1C(=O)[C@H](CCCCN)NC(=O)[C@H](CCCN)NCc2cccnc2Sc2c(Cl)ccc(Cl)c2CNC(=O)[C@@H]1Cc1c[nH]c2ccccc12` [Example 38 of WO2017/072062, reference compound], the pIC50 in data set [2] (setting [12]) is 7.38. For the same compound, the “Plasma precipitation MEC” value in data set [5] (setting [10]) was 52 µmol/L.
In the same order, the values of `CN1C(=O)[C@H](CCCCN)NC(=O)[C@H](CCCN)NCc2cccnc2Sc2c(Cl)ccc(-c3ccc(C(=O)O)cc3)c2CNC(=O)[C@@H]1Cc1c[nH]c2ccccc12` [Example 239 of WO2017/072062, reference compound] are 7.70 and 470 µmol/L.
On to `CN1C(=O)[C@H](CCCCN)NC(=O)[C@H](CCCN)NCc2cccnc2Sc2c(Cl)ccc(-c3ccc(OCC(=O)O)cc3)c2CNC(=O)[C@@H]1Cc1c[nH]c2ccccc12` [Example 241 of WO2017/072062, reference compound], for which, in data set [2] (setting [9]), the pIC50 was 7.30. Further, the “Plasma precipitation MEC” value in data set [5] (setting [11]) worked out at 95 µmol/L.
Consider `CN1C(=O)[C@H](CCCCN)NC(=O)[C@H](CCCN)NCc2cccnc2Sc2c(Cl)ccc(-c3ccc(C(=O)O)cc3)c2CNC(=O)[C@@H]1Cc1c[nH]c2ccccc12` [drawing 99, reference compound], for which the “cynomolgus monkey clearance, in vitro scaled” value in data set [3] is 28.3 mL/min/kg. Further, the “human clearance, in vitro scaled (predicted)” value in data set [4] is 3.91 mL/min/kg. The clearance turned out to be 23.5 mL/min/kg in data set [6] and 14.5 mL/min/kg in data set [8]. Also, the “rat clearance, in vitro scaled” value in data set [7] is on record as 28.7 mL/min/kg.
